A value given as a limit tells only on which side of the number the result lay.

In general, melting point refers to the temperature, or range, at which the solid turns liquid. Take `O=C(O)c1cc(-c2ccc(-c3cc(C(=O)O)c4ccccc4n3)cc2)nc2ccccc12`: the melting point was > 315 °C.
Take `Nc1ccc(C(=O)O)c(N)c1`: the melting point worked out at 140 °C.
Regarding `O=C1OC(c2ccc(Cl)cc2)=NC1=Cc1ccccc1`, the melting point lay in the range of 181 to 182 °C.
The result for `CCc1c(C)nc(NC(=O)NS(=O)(=O)c2cccs2)nc1Cl` reads 126 to 127 °C; that for `O=C(/C=C/c1ccccc1)NNc1ccccc1`, 187 °C; that for `N#Cc1ccnc(Br)c1`, 72 °C.
The result for `Cc1cc(N=Nc2ccc(N=Nc3ccccc3)cc2)c(C(C)C)cc1N=Nc1ccc(N=Nc2ccccc2)cc1` reads 226 °C.
`O=Cc1cc(I)cc(I)c1O` came in with a melting point of 108 °C.
Compound `OCC1OC(n2cnc3c(NCc4ccco4)ncnc32)C(O)C1O` (stereo unspecified) gave a melting point of 152 to 154 °C.
Compound `Oc1ccnc2c(C(F)(F)F)cccc12` showed a melting point of 172 °C.
In turn, `NCCCCCCCCCCN` returned a melting point of 62.5 °C.
Take `O=C(O)c1sccc1Cl`: the melting point was found to be 186 °C.
The result for `CCOC(=O)NN(C(=O)OCC)c1c(-c2ccccc2)nc2n1CCS2` reads 179 to 180 °C; that for `CC(C)(C)N(NC(=O)c1ccccc1)C(=O)c1ccccc1I`, 188 °C; that for `O=C(O)CN1CSC(=S)N(Cc2ccccc2)C1`, 152 °C.
Regarding `Cc1ccc([N+](=O)[O-])cc1Cl`, the melting point is 66.5 °C.
In turn, `NC(=O)c1cccc(Cl)c1Cl` displayed a melting point of 170 to 172 °C.
The compound `Cc1cc(S(=O)(=O)Cl)c(Cl)cc1Cl` registered a melting point of 72 °C.
Consider `CC1=CCC=C(C)CCC=C(C)CCC(C(C)C)C=C1` (stereo unspecified), for which the melting point is 59 to 61 °C.
As for `CCOCCOCC`, the melting point is -74 °C.
Compound `CCCCCCCC(=O)OC1CCC2(C)C(=CCC3C2CCC2(C)C(C(C)CCCC(C)C)CCC32)C1` (stereo unspecified) returned a melting point of 110 °C.
The compound `O=C(Nc1c(Cl)cc(Cl)cc1Cl)C(C(F)(F)F)C(F)(F)F` came in with a melting point of 218 to 220 °C.
`Nc1ncc(Br)cn1`: the melting point lay within 239 to 244 °C.
Compound `COC(=O)c1sccc1Br` gave a melting point of 50 to 51 °C.
The compound `C=CCSc1ncccc1C(=O)O` gave a melting point of 147 to 149 °C.
Regarding `CC12CCC3C(CCC4CC(O)CCC43C)C1CCC2=O` (stereo unspecified), the melting point came out at 185 °C.
The result for `COc1ccc(C2C(C#N)=C(N)Oc3cc(C)n(CCc4ccccc4)c(=O)c32)cc1` (stereo unspecified) reads 264 °C; that for `O=C(O)c1cc2cc([N+](=O)[O-])ccc2s1`, 238 to 241 °C; that for `CCc1cccc([N+](=O)[O-])c1`, -37.9 °C.
The compound `CC(=O)Oc1ccccc1C(=O)Cl` returned a melting point of 49 °C.
The compound `CC(=O)Oc1ccccc1C(C)=O` returned a melting point of 90 °C.
The result for `C12C3C4C1C1C2C3C41` (stereo unspecified) reads 126 °C.
The result for `O=C(O)/C(=C/c1ccccc1F)c1ccccc1` reads 169 °C.
For `O=P(c1ccccc1)(c1ccccc1)C1C=C(c2ccc(Br)cc2)OC(c2ccc(Br)cc2)=C1`, the melting point lay within 193 to 194 °C.
Turning to `C=CCNC(N)=S`, the melting point stood at 78 °C.
Turning to `COc1nsc(N)n1`, the melting point was in the range of 172 to 173 °C.
As to `CC(C)(C)OC(=O)CC(=O)OC(C)(C)C`, the melting point is -6 °C.
`O=S1(=O)OCC2C(CO1)C1(Cl)C(Cl)=C(Cl)C2(Cl)C1(Cl)Cl` (stereo unspecified): the melting point was found to be 182 °C.
With `CCOC(=O)c1cnn(-c2ccc(N)cc2)c1C`, the melting point lay within 91 to 92 °C.
Take `Cc1onc(-c2c(Cl)cccc2Cl)c1C(=O)Cl`: the melting point was in the range of 92 to 95 °C.
The result for `O=C(Cl)/C=C/c1cccc(C(F)(F)F)c1` reads 30 °C.
As for `Brc1c(Br)c(Br)c(Br)c(Br)c1Br`, the melting point is 326 °C.
As to `Cc1c(Cl)cc([N+](=O)[O-])cc1Cl`, the melting point is 63 to 64 °C.
Take `CC(=O)Oc1ccccc1C(=O)OCC(=O)N(C)CC(N)=O`: the melting point is 132 °C.
`CC(=O)Nc1ccc(Br)c(C(F)(F)F)c1`: the melting point is 116 to 119 °C.
Regarding `Brc1cccc2cn[nH]c12`, the melting point turned out to be 128 °C.
`CC1=NN(CN2CCOCC2)C(=O)/C1=N\Nc1ccc(C(=O)O)cc1` had a melting point of 187 °C.
As to `COC(=O)c1ccc(NS(=O)(=O)c2ccc(C)cc2)c(NS(=O)(=O)c2ccc(C)cc2)c1`, the melting point lay within 180 to 182 °C.
The result for `O=c1[nH]c(=O)n(C2CCC(CO)O2)cc1Br` (stereo unspecified) reads 180 °C.
Compound `N=c1sc(C(=O)c2cccs2)nn1-c1ccccc1` came in with a melting point of 134 °C.
The result for `COC(=O)c1ccc(N)c(C)c1` reads 116 to 117 °C; that for `C#CC(=C)C`, -113 °C; that for `CC1(C)OC(=O)C(=Cc2cccc([N+](=O)[O-])c2)C(=O)O1`, 322 °C.
`Cc1ccc2ccc(=O)oc2c1` had a melting point of 128 °C.
For the compound `O=C(O)C1(C(=O)O)CC1`, the melting point was 134 to 138 °C.
In turn, `CC(=O)Oc1ccc2c(c1)Oc1cc(OC(C)=O)ccc1C21OC(=O)c2ccccc21` gave a melting point of 200 to 205 °C.
In the case of `COc1cc2c(cc1OCc1ccccc1)C(C)N(C)CC2` (stereo unspecified), the melting point stood at 82 °C.
Take `Cc1ccc2ccc(Cl)cc2n1`: the melting point was in the range of 74 to 78 °C.
`NC(=O)NN=C(O)/C=C/c1ccccc1`: the melting point lay in the range of 197 to 198 °C.
Turning to `CCOC(=O)NP(=O)(N1CC1)N1CC1`, the melting point was 89 °C.
The result for `CC(C)c1ccc(O)c(O)c1` reads 78 °C; that for `O=C(C=Cc1ccccc1)n1ccnc1`, 127 to 133 °C; that for `CC(C)C(C)N` (stereo unspecified), -50 °C.
The compound `O=C(O)CCCCCCCCCCCCC1C=CCC1` (stereo unspecified) returned a melting point of 68.5 °C.
In turn, `O=S1(=O)CCc2ccccc2CC1` registered a melting point of 153 to 155 °C.
As to `CCN1C(=O)NC(c2ccccc2)C1=O` (stereo unspecified), the melting point stood at 94 °C.
With `CC(=O)c1cnccn1`, the melting point stood at 77 °C.
Turning to `CC1(C)C(C=CC(=O)OC(C(F)(F)F)C(F)(F)F)C1C(=O)OC(C#N)c1cccc(Oc2ccccc2)c1` (stereo unspecified), the melting point stood at 81.5 °C.
The result for `O=C(OCCc1cc([N+](=O)[O-])c(CCOC(=O)c2ccccc2)cc1[N+](=O)[O-])c1ccccc1` reads 157 to 158 °C; that for `CCOCCOC(=O)C=Cc1ccc(OC)cc1`, -25 °C; that for `Cc1c([N+](=O)[O-])cc(N)cc1[N+](=O)[O-]`, 171 °C.
Take `CCCCCCCC(N)P(=O)(O)O` (stereo unspecified): the melting point lay within 269 to 270 °C.
`COC(=O)c1ccc2c(C=O)c[nH]c2c1` showed a melting point of 219 to 224 °C.
Regarding `NCCCN1CCOCC1`, the melting point is -15 °C.
Regarding `Cc1ccc(C(=O)C2=NOC3C(=O)N(c4cc(Cl)ccc4Cl)C(=O)C23)cc1` (stereo unspecified), the melting point stood at 191 °C.
Compound `O=[N+]([O-])c1ccc(C=Cc2ccc([N+](=O)[O-])cc2S(=O)(=O)Oc2ccccc2)c(S(=O)(=O)Oc2ccccc2)c1` returned a melting point of 192 °C.
In the case of `Cc1c(Nc2ncccc2C(=O)O)cccc1C(F)(F)F`, the melting point came to 226 °C.
As to `CN(C)c1ccc([N+](=O)[O-])c(N)c1`, the melting point lay in the range of 134 to 139 °C.
In turn, `CC(C)C(NC(=O)C(C)(C)Br)C(C)C` yielded a melting point of 80 to 82 °C.
The result for `CCOC(=O)c1c(NC(=O)CN2CCN(C(=O)OCC)CC2)sc2c1CCCC2` reads 122 to 123 °C.
The compound `CSc1nc(O)ns1` came in with a melting point of 158 to 160 °C.
`O=C1NC2C=CC1C2` (single isomer, unassigned; (-)) had a melting point of 92 to 100 °C.
In turn, `O=C(O)C1c2ccccc2C(=O)N(Cc2ccc(F)cc2)C1c1cccnc1` (stereo unspecified) showed a melting point of 250 °C.
Regarding `O=Cc1ccc(-c2ncccn2)cc1`, the melting point fell in the range of 108 to 109 °C.
Regarding `O=C(O)CCCCl`, the melting point was determined as 16 °C.
Compound `CCOC(=O)C1=C(c2ccccc2)NC(=O)NC1c1ccccc1` (stereo unspecified) displayed a melting point of 172 °C.
In turn, `CSc1nsc(S)n1` had a melting point of 143 to 147 °C.
The compound `CNC(=O)ON=CC(C)(C)SC` had a melting point of 99 °C.
The result for `CCCCc1cc2ccccc2c(O)c1C(C)=O` reads 62 °C.
The result for `O=C(CBr)c1ccc2c(c1)OCCCO2` reads 78 to 80 °C.
Take `O=S(=O)(Cl)c1cccc(Br)c1`: the melting point was 32 °C.
`Nc1c(F)c(F)nc(F)c1F` showed a melting point of 86 °C.
The result for `O=C1NC(=O)C(=NNc2cccc([N+](=O)[O-])c2)C(=O)N1` reads 270 °C; that for `CC(=O)CCC(C)C`, -74 °C.
Turning to `O=[N+]([O-])c1cc(Br)cnc1Cl`, the melting point was 64 to 67 °C.
Turning to `CC(C=Cc1ccc(C=CC(C)=NO)cc1)=NO`, the melting point was 280 °C.
The result for `OC1CC(O)C(O)C(O)C1O` (stereo unspecified) reads 236 °C; that for `O=C(Cl)c1ccc2c(c1)OCCO2`, 100 to 101 °C.
For `COC1N(c2ccccc2)N=C(c2ccccc2)N1c1ccccc1` (stereo unspecified), the melting point was determined as 80 °C.
Consider `NCCOP(=O)(O)O`, for which the melting point is 242 °C.
For `CC12CCC3C(CCC4CCCCC43C)C1CCC2=O` (stereo unspecified), the melting point worked out at 121 °C.
As to `CCc1ccc(C(C)=O)cc1`, the melting point is -20.6 °C.
The result for `Cc1ccc(C(=O)c2csc(S(N)(=O)=O)c2)cc1` reads 176 °C.
The result for `COC(=O)c1cc(C)[nH]c1C` reads 120 °C; that for `S=c1[nH]c2ccc(Cl)cc2o1`, 229 to 232 °C.
The result for `O=C(O)CC(C(=O)O)C(CC(=O)O)C(=O)O` (stereo unspecified) reads 195 to 197 °C.
On to `CCC(=O)c1cccc(C(F)(F)F)c1`, for which the melting point is 19 °C.
In turn, `OCC#CCO` yielded a melting point of 56 °C.
The compound `FC(F)(F)c1cccc(CSc2nnc(S)s2)c1` yielded a melting point of 140 to 142 °C.
`CC(=O)OC1(C(C)=O)CCC2C3CC(C)C4=CC(=O)C=CC4(C)C3(F)C(O)CC21C` (stereo unspecified) had a melting point of 298 °C.
On to `COc1cccc2sc(N)nc12`, for which the melting point is 156 °C.

The values above are taken from a melting point compilation (Tetko et al.).
